The values below come from paper PMC8400257, “2-Phenoxy-3-Trichloromethylquinoxalines Are Antiplasmodial Derivatives with Activity against the Apicoplast of Plasmodium falciparum” (Pharmaceuticals, 2021).

Experiment [1] concerns F32-ART5 and F32-TEM parasites. The experiment is described as follows: Recrudescence assay. Type of experiment: cell-based, Plasmodium falciparum. Conditions: 48 h exposure; 2.5 µM 3i or 18 µM ART; log-rank Mantel-Cox test. The procedure: Recrudescence assay was performed to evaluate the ability of the F32-ART5 parasites to survive drug exposure comparatively to the F32-TEM parasites. D-sorbitol synchronized ring-stages at 3% parasitemia (2% hematocrit) were exposed to drug for 48 h. After drug exposure, parasite cultures were washed with RPMI-1640 medium and replaced in normal drug-free culture conditions. The time to parasite recrudescence was determined as the time required to reach the 3% initial parasitemia. […] Each experiment was performed for F32-ART5 and F32-TEM and cultivated in parallel in the same conditions to generate paired results. This was carried out at least three times independently. A statistical analysis (log-rank Mantel–Cox test) was carried out on data thanks to a Kaplan–Meier survival analysis (using GraphPad Prism software) considering censored data.
Figure S48. 13C NMR spectrum of 2i in CDCl3, on a Bruker ARX 101 spectrometer
2. […]
3. Studying the effect of (3i) on the liver stage development of P. falciparum Cryopreserved primary human hepatocytes were seeded in 96 well plates with a pre-determined seeding dose that gave a single dense layer of attached hepatocytes. […]
The culture medium with or without drugs was refreshed every 48 hours and two independent plates were studied. […] Plates were subjected to quantification using an automated plate scanner. […]

The subject of experiment [2] is P. falciparum apicoplast. The experiment is described as follows: Immunofluorescence assay of apicoplast biogenesis on treated blood-stage parasites. Type of experiment: cell-based, Plasmodium falciparum. Conditions: 48 h, 0.2 µM. The procedure:
To determine the impact of (3i) on apicoplast biogenesis, parasites were treated for 48 h with 0.2 µM of (3i) or 0.2 µM of (2i) (a control of (3i) for which the active CCl3 was replaced by a methyl CH3 group) and compared to untreated parasites by immunofluorescence assay. […] In order to determine if the apicoplast is the main target of (3i), we performed a growth assay over three life cycles to assess a potential delayed death effect, one of the major signature for compounds affecting apicoplast. […] The second interpretation could be that, unlike chloramphenicol or doxycycline, which cause a delayed death phenotype on Plasmodium, (3i) could act like fosmidomycin or actinonin and cause a rapid death phenotype.
Plasmodium falciparum blood stage parasites were maintained at 2% hematocrit in 1640 RPMI-HEPES, supplemented with 5% AlbuMAX II (GIBCO) and 0.25% gentamycin. Parasites were grown sealed Perspex chambers gassed with beta mix gas (1% O2, 5% CO2 and 94% N2) at 37 °C and maintained on 48-h cycles. Cultures were tightly synchronized at ring stage using sorbitol treatment (5% v/v) as previously described.
Prior to the treatment, parasites were synchronized using 5% sorbitol. After 48 h treatment ([…] or DMSO) parasites were fixed using 4% paraformaldehyde (PFA) and 0.0075% glutaraldehyde for 30 min at room temperature. […]

“Also recorded” adds a separate entry of the source.

On to `O=[N+]([O-])c1ccc(Oc2nc3ccccc3nc2C(Cl)(Cl)Cl)cc1` [3i, 2-(4-Nitrophenoxy)-3-trichloromethylquinoxaline], for which the “Recrudescence of F32-ART5 compared with F32-TEM after drug exposure” value in experiment [1] is “faster recrudescence”. Moreover, in experiment [2], the “Effect on apicoplast biogenesis (immunofluorescence)” value is “effect on the apicoplast biogenesis; also recorded: doted single non-elongated apicoplast at the mid-trophozoite life stage”.
